# Measurements taken from patent US8372876B2, “Method for improving memory in mammals” (The University of Houston System, priority 2007, dated 2013).
# Entries after “also recorded” stand apart in the source; their conditions may differ.
# Key:
# [1] = target: T1, MT2 than for MT1 subtypes of melatonin receptors (Homo sapiens, UniProt P49286); settings: MT2 versus MT1 selectivity; cited from earlier work
# T1 sequence (P49286 1-362): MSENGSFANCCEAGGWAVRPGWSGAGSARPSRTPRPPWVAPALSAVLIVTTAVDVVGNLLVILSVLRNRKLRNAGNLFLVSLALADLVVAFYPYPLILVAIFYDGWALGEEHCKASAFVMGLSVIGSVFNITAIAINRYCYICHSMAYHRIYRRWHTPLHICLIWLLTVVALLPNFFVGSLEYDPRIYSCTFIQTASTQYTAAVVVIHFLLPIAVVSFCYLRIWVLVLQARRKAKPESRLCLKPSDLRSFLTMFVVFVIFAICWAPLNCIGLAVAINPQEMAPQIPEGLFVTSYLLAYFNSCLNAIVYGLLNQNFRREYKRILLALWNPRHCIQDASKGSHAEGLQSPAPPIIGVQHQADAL
# [2] = tested on: zebrafish embryos; settings: cited from earlier work
# [3] = tested on: C3H/HeN mice; settings: more pronounced effect at midnight than midday; cited from earlier work
# [4] = tested on: Zebrafish (D. rerio); experiment: active-avoidance conditioning in a shuttle box: learning (trials to criteria) and 24 h retention score; format: in vivo
# Description: Zebrafish (D. rerio) were bred, raised and maintained by the experimenter at the University of Houston Animals Facility. Adult zebrafish are maintained in 2-liter modular aquaria (Marine Biotech) with continuous water exchange at 26-28° C. under 14:10 hours light:dark cycle. Eggs and larvae are maintained in beakers with daily water changes, under the same light:dark cycle and similar temperatures. Larval fish are fed with filtered paramecium. All animals, juvenile (>15 days) and adults are fed three times a day with live brine shrimp or flake. The *AB strain was originally obtained from the University of Oregon. All protocols were approved by the University of Houston Institutional Animal Care Use Committee. Zebrafish are trained on an active-avoidance conditioning paradigm using a modified shuttle box. Zebrafish must cross a hurdle to avoid electric shocks (3V; unconditioned stimulus) administered via electrodes 10 seconds after the onset of the conditioned stimulus which was a dim red light. Dim red lights are placed at the extremity of each compartment of the shuttle box. The light signal was kept on during each cycle lasting for 20 seconds in one compartment; subsequently, the conditioned and unconditioned stimuli changed to the other side of the shuttle box. Zebrafish must learn to escape the dark compartment and maintain in the compartment having the light stimulus on for the remaining trial period. Animals that respond correctly to the light signals in eight out of ten consecutive trials during the training period are designated learners. Training was terminated once Zebrafish achieve the learning criteria (i.e. swimming the compartment where the stimulus light was on and remain there until the light was switched off). […] Animals are tested 24 hours later under identical conditions to test for retention of the learned task. To quantitatively evaluate the ability of each learner to recall the active avoidance conditioning paradigm, a retention score was calculated using the algorithm of Piront and Schmidt [formula] The number of trials required to reach the learning criteria during the test session was subtracted from number of trials required to reach the learning criteria in the training session, divided by the number of trials in the test plus training sessions. Retention scores range from 0 to 1.0. […] Melatonin Blocks Long-Term Memory Formation During the Subjective Day This melatonin effect was tested by taking animals originally under 14:10 hours light:dark cycles and exposing them to constant darkness for 4 days. On the 3rd day of constant darkness and one hour prior to training at CT7 (corresponds to 4 pm) animals were bathed in increasing concentrations of melatonin (1 μM, 10 μM, 50 μM and 100 μM). Animals were then trained at CT8 for active avoidance conditioning and tested 24 hours later on the 4th day of constant darkness at CT8 for long-term memory formation. […] To test whether melatonin blocks long-term memory formation via melatonin receptor mediated signaling pathway, the following experiments were performed. Animals in their original 14:10 hours light:dark cycles were set under free running conditions of constant darkness and temperature (25° C.) for 4 days. […] Treatments comprising of melatonin and either of its antagonists (luzindole or K-185) do improve the retention score, going from 0.1 with melatonin alone to about 0.4 in the presence of a mixture of melatonin and luzindole and to about 0.3 in the presence of a mixture of melatonin and K-185. […] This means that the inhibitory action of melatonin was mediated via a melatonin receptor-signaling pathway. […] This effect was tested by blocking night time melatonin receptor mediated signaling pathways with increased concentrations of melatonin receptor antagonist, such as luzindole. Animals in 14:10 hours light:dark cycles were exposed to constant darkness and temperature (25° C.) for 4 days. […]
compound,measurement,setting,value
"CCCC(=O)NCCc1c2n(c3ccc(OC)cc13)CCCc1ccccc1-2 [K-185, N-butanoyl-2-(5,6,7-trihydro-11-methoxy-benzo[3,4]cyclohept[2,1-a]indol-13-yl) ethanamine]",higher affinity for MT2 than for MT1,[1],> 140 fold
same,antagonism of the effect of melatonin on zebrafish development,[2],blocking the effect of melatonin on zebrafish development
"CC(=O)NCCc1c(Cc2ccccc2)[nH]c2ccccc12 [luzindole, N-Acetyl-2-benzyltryptamine]",duration of immobility during swimming,[3],decreases the duration of immobility during swimming
same,retention score,"[4]; 0.5 μM luzindole, 1 h at CT15, trained CT16, tested 24 h later (subjective night), FIG. 4b",less than 0.1
same,retention score,"[4]; 1 μM luzindole, 1 h at CT15, trained CT16, tested 24 h later (subjective night), FIG. 4b",0.25
same,number of trials to reach learning criteria,"[4]; luzindole at increasing concentration, 1 h at CT15, trained CT16 (subjective night), constant darkness, FIG. 4a",No significant difference; also recorded: remains the same
"COc1ccc2[nH]cc(CCNC(C)=O)c2c1 [melatonin, 5-OCH3 N-acetyltryptamine]",retention score,"[4]; 100 μM melatonin, 1 h at CT7, trained CT8, tested 24 h later (subjective day), FIG. 2b",significantly reduced
same,long-term memory formation (retention score),"[4]; low concentrations of melatonin, 1 h at CT7, tested 24 h after training at CT8",do not significantly block long-term memory formation
same,retention score,"[4]; melatonin concentration over 50 μM, 1 h at CT7, tested 24 h after training at CT8 (subjective day)",around 0.1
